In patent US8404725B2, “Phenylamino isonicotinamide compounds” (Merck Patent GmbH, priority 2008, dated 2013):

Key:
[1] = system: MiaPaCa2 xenograft; experiment: In vivo efficacy, MiaPaCa2 mouse xenograft model; conditions: male nude mice
Procedure: (§1) Male nude (nu/nu) mice were injected subcutaneously above the right foreleg with certain number of cells of human tumor cell lines such as Colo-205, A375 or MiaPaCa2. Tumors were measured with calipers one week after cells were implanted. Tumor length (l) and width (w) were measured and tumor volume was calculated with the equation l*w^2/2. […] Tumor volume and body weight were measured for each animal on Days 0, 4, 6, 8, 10, 12 and 14. Tumor volume and percent body weight were analyzed via Two-Way Repeated Measures Analysis of Variance (RM-ANOVA) followed by Fisher's post-hoc multiple pair-wise comparisons of treatment group means.

[2] = system: human pancreatic MiaPaCa-2 cells; experiment: Tumor Cell Proliferation Assay (ATP Lite), MiaPaCa-2; type: cell-based; conditions: MIA PaCa-2, 96 h, 4 days
Procedure: (§2) Murine colon C26, human melanoma A375 and human pancreatic MiaPaCa-2 cells were plated in 96 well Corning white plates (1500 cells/well for C26, and 2000 cells/well for A375, and MiaPaCa-2) and cultured overnight at 37° C. in 5% CO2. Inhibitors were serially diluted in 100 DMSO and subsequently added to cells to reach a final concentration of 0.25% DMSO. The cells were incubated for 4 days in the presence of test compounds in cell growth media (DMEM with 10% fetal bovine serum, 2 mM glutamine for C26, and MiaPaCa-2, and RPMI with 10% fetal bovine serum, 2 mM glutamine for A375). Cell proliferation was quantitated using the ATP lite cell proliferation kit (Packard). Columns 2-5 show the concentration of compounds required to induce 50% cell death (IC50 in μM) of […].

[3] = molecular target: human MEK1 (Homo sapiens, UniProt Q02750); experiment: MEK-1 Enzyme Assay (LANCE-HTRF); type: biochemical; conditions: 100 nM MEK1, 15 μM ATP, 300 nM ERK2, two hours
Procedure: The activity of the compounds of the present invention may be determined by the following procedure: Inhibition of human MEK1 kinase activity was monitored with a homogenous, fluorescence based assay. The assay uses time resolved fluorescence resonance energy transfer to probe for phosphorylation of […] by MEK1. The assay is carried out in low volume 96 well microtiterplates. In a total volume of 15 μl, compounds are incubated with 100 nM MEK1, 15 μM ATP, 300 nM ERK2 employing a buffer containing 20 mM TRIS/HCl, 10 mM MgCl2, 100 μM NaVO4, 1 mM DTT, and 0.005% Tween 20 (pH 7.4). After two hours, 5 nM Europium-anti-PY20 (Perkin Elmer) and 50 nM Anti-GST-Allophycocyanin (CisBio) in buffer containing 50 mM EDTA and 0.05% BSA are added and the reaction incubated for one hour in the dark. Time-resolved fluorescence is measured using a LJL-Analyst (Molecular Devices) with an excitation wavelength of 340 nm and an emission wavelength of 665 nm. The final concentration of DMSO is 2%.

[4] = system: Colo-205 xenograft; experiment: In vivo efficacy, Colo-205 mouse xenograft model; conditions: male nude mice
Procedure: as §1

[5] = system: Murine colon C26 cells; experiment: Tumor Cell Proliferation Assay (ATP Lite), C26; type: cell-based; conditions: Mus musculus, 96 h, 4 days
Procedure: as §2

[6] = system: human melanoma A375 cells; experiment: Tumor Cell Proliferation Assay (ATP Lite), A375; type: cell-based; conditions: A-375, 96 h, 4 days
Procedure: as §2

human MEK1, sequence (Q02750 whole entry): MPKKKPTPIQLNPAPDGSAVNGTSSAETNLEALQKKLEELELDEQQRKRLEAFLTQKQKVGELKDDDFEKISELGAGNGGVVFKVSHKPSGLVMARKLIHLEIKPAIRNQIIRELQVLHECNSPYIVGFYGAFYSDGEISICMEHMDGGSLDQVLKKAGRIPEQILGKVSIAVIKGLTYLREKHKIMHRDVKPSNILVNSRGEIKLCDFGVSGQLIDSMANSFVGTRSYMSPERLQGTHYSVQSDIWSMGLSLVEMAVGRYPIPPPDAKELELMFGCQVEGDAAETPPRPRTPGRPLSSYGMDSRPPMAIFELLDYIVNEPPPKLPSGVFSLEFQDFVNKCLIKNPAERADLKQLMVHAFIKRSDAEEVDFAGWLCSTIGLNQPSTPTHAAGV

Compound	TGI ([1]; 33 μg/kg/day) [%]	TGI ([1]; 50 μg/kg/day) [%]	IC50 [2] [nM]	IC50 [3] [nM]	tumor growth inhibition (TGI) ([4]; 50 μg/kg*day, oral route) [%]	tumor growth inhibition ([4]; 150 μg/kg/day) [%]	IC50 [5] [nM]	IC50 [6] [nM]	tumor growth inhibition ([4]; daily 1.5 mg/kg, oral route) [%]
O=C(N[C@@H]1CCC[C@@H](O)[C@H]1O)c1ccncc1Nc1ccc(I)cc1F [Compound (8), N-[(1R,2S,3R)-2,3-dihydroxycyclohexyl]-3-[(2-fluoro-4-iodophenyl)amino]isonicotinamide]	100.97	110.74	2.7	133	100.69	115.33	4.7	1.6	–
O=C(N[C@@H]1CCC[C@@H](O)[C@H]1O)c1ccncc1Nc1ccc(Br)cc1F [(9), 3-(4-bromo-2-fluorophenylamino)-N-((1R,2S,3R)-2,3-dihydroxycyclohexyl)isonicotinamide]	–	–	–	–	–	–	–	–	98.5
O=C(N[C@H]1CCC[C@H](O)[C@@H]1O)c1ccncc1Nc1ccc(I)cc1F [(7), N-((1S,2R,3S)-2,3-dihydroxycyclohexyl)-3-(2-fluoro-4-iodophenylamino)isonicotinamide]	–	–	2120	2670	–	–	5400	274	–
O=C(N[C@@H]1CCC[C@@H](O)[C@H]1O)c1cc(Cl)ncc1Nc1ccc(I)cc1F (racemic) [(1), 2-Chloro-N-((1RS,2SR,3RS)-2,3-dihydroxy-cyclohexyl)-5-(2-fluoro-4-iodo-phenylamino)-sonicotinamide]	–	–	2	34.5	–	–	2	2	–
O=C(N[C@@H]1CCC[C@@H](O)[C@H]1O)c1ccncc1Nc1ccc(Br)cc1Cl (racemic) [(6), 3-(4-Bromo-2-chloro-phenylamino)-N-((1RS,2SR,3RS)-2,3-dihydroxy-cyclohexyl)-isonicotinamide]	–	–	75.3	38	–	–	113	16.8	–
O=C(N[C@H]1CCC[C@H](O)[C@@H]1O)c1ccncc1Nc1ccc(I)cc1F (racemic) [(3), N-[(1SR,2RS,3SR)-2,3-dihydroxycyclohexyl]-3-[(2-fluoro-4-iodophenyl)amino]isonicotinamide]	–	–	7.3	94.8	–	–	16	1.4	–
N[C@@H]1CCC[C@@H](OC(=O)c2c(F)cncc2Nc2ccc(I)cc2F)[C@H]1O (racemic) [(4), 3-Fluoro-5-(2-fluoro-4-iodo-phenylamino)-isonicotinic acid (1RS,2SR,3RS)-3-amino-2-hydroxy-cyclohexyl ester]	–	–	49	160	–	–	20	85.5	–
O=C(N[C@@H]1CCC[C@@H](O)[C@H]1O)c1ccncc1Nc1ccc(Br)cc1F (racemic) [(5), 3-(4-Bromo-2-fluoro-phenylamino)-N-((1RS,2SR,3RS)-2,3-dihydroxy-cyclohexyl)-isonicotinamide]	–	–	42.5	98	–	–	73	7.5	–
O=C(N[C@@H]1CCC[C@@H](O)[C@H]1O)c1c(F)cncc1Nc1ccc(I)cc1F (racemic) [(2)]	–	–	4.5	74	–	–	5	1	–
O=C(N[C@@H]1CCC[C@@H](O)[C@H]1O)c1ccncc1Nc1ccccc1F [(10), N-((1R,2S,3R)-2,3-Dihydroxy-cyclohexyl)-3-(2-fluoro-phenylamino)-isonicotinamide]	–	–	74	189	–	–	150	21.5	–
